Measurements: the supplement of paper PMC9262897, “Low-cost anti-mycobacterial drug discovery using engineered E. coli” (Nature Communications, 2022)

Columns and labels:
E. coli TESEC Mtb Alr = test: growth (OD600 after 10 h, mean); higher = more growth;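 note: E. coli lacking its native Alr, complemented by codon-optimized Mtb Alr under a feedback-controlled arabinose-inducible plasmid circuit, grown in defined medium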
Procedure: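 TESEC Mtb Alr E. coli grown in a two-dimensional dilution series of drug (µM) and arabinose (12 to 1e8 nM). Growth is read as OD600 after 10 h; values are means of 3 biological replicates.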

∆mdtK = test: growth (OD600 after 24 h); higher = more growth
Procedure: (§1)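 E. coli BW25113 ΔaraC (Efflux+) or efflux-pump deletion strains (ΔtolC ΔentC, ΔemrE, ΔmdtI, ΔyeeO, ΔmdtK, ΔmdtM) diluted 1:100 in M9-based medium with a drug dilution series. Growth is read as OD600 after 24 h; 3 biological replicates.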

∆mdtI = test: growth (OD600 after 24 h); higher = more growth
Procedure: as §1

∆tolC ∆entC = test: growth (OD600 after 24 h); higher = more growth
Procedure: as §1

∆mdtM = test: growth (OD600 after 24 h); higher = more growth
Procedure: as §1

Efflux+ = test: growth (OD600 after 24 h); higher = more growth
Procedure: as §1

∆emrE = test: growth (OD600 after 24 h); higher = more growth
Procedure: as §1

∆yeeO = test: growth (OD600 after 24 h); higher = more growth
Procedure: as §1

CCOC(=O)[C@H](CCc1ccccc1)N[C@H]1CCc2ccccc2N(CC(=O)O)C1=O [Benazepril]
growth, E. coli TESEC Mtb Alr
Conditions	drug 15.62 µM	drug 31.25 µM	drug 62.5 µM	drug 125 µM	drug 250 µM
arabinose 12 nM	0.354	0.343	0.321	0.279	–
arabinose 24 nM	0.338	0.339	0.326	0.285	–
arabinose 48 nM	0.334	0.332	0.33	0.275	–
arabinose 95 nM	0.343	0.334	0.309	0.279	–
arabinose 191 nM	0.341	0.34	0.308	0.275	–
arabinose 381 nM	0.338	0.325	0.309	0.274	–
arabinose 763 nM	0.337	0.322	0.304	0.278	–
arabinose 1526 nM	0.333	0.322	0.305	0.275	0.185
arabinose 3052 nM	0.338	0.326	0.308	0.279	0.183
arabinose 6104 nM	0.337	0.334	0.303	0.277	0.187
arabinose 12207 nM	0.353	0.332	0.312	0.288	0.186
arabinose 24414 nM	0.352	0.348	0.309	0.297	–
arabinose 48828 nM	0.367	0.393	0.396	0.359	–
arabinose 97656 nM	0.451	0.462	0.394	0.376	–
arabinose 195312 nM	0.429	0.42	0.387	0.327	–
arabinose 390625 nM	0.344	0.35	0.346	0.289	–
arabinose 781250 nM	0.311	0.307	0.306	0.281	–
arabinose 1562500 nM	0.295	0.287	0.286	0.269	–
arabinose 3125000 nM	0.274	0.267	0.268	0.255	–
arabinose 6250000 nM	0.267	0.273	0.273	0.256	–
arabinose 12500000 nM	0.263	0.266	0.256	0.256	–
arabinose 25000000 nM	0.259	0.258	0.252	0.244	–
arabinose 50000000 nM	0.246	0.245	0.244	0.243	–
arabinose 100000000 nM	0.239	0.231	0.23	0.227	–

growth
Conditions	Efflux+	∆emrE	∆mdtI	∆mdtK	∆mdtM	∆tolC ∆entC	∆yeeO
drug 62.5 µM	1.02	1.18	0.992	0.937	0.822	0.756	0.887
drug 125 µM	0.974	1.16	0.978	1.04	0.832	0.791	0.894
drug 250 µM	0.962	1.09	0.979	1	0.807	0.8136	0.895
drug 500 µM	0.969	1.08	0.983	1.01	0.827	0.8286	0.901
drug 1000 µM	0.977	1.065	1	0.974	0.835	0.0672	0.91
drug 2000 µM	1	1.14	1.009	0.856	0.833	0.0535	0.882
